Reference: US12318401B2, “Injectable shear-thinning hydrogel containing therapeutic agent for enhanced tumor therapy” (MAYO FOUNDATION FOR MEDICAL EDUCATION AND RESEARCH, priority 2021, dated 2025)

Tested on: B16F10 melanoma tumor cells
Test: In vivo anti-cancer efficacy in melanoma tumor model
Set-up: species or system C57B1/6J mice
Settings: subcutaneous B16F10 melanoma in mice
Procedure: Finally, in vivo anti-cancer efficacy of DOX-STB was analyzed in a melanoma tumor model made by subcutaneous injection of B16F10 melanoma tumor cells into C57B1/6J mice (FIG. 7A).

Structure (SMILES): COc1cccc2c1C(=O)c1c(O)c3c(c(O)c1C2=O)C[C@@](O)(C(=O)CO)C[C@@H]3O[C@H]1C[C@H](N)[C@H](O)[C@H](C)O1 [DOX, doxorubicin]
- tumor size in gross: tumor size decreased
